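All cell lines were grown in 96-well plates and treated with compound for 48 hours. Here, GI50 denotes the concentration required for 50% inhibition of growth. TGI marks complete inhibition of growth.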
Tests used:
Experiment in all cases: inhibition of tumour cell growth, NCI panel, 48 h
[1] = system: HT29 colon
[2] = system: MDA-MB-435
[3] = system: SF-268 CNS
[4] = system: SR leukemia
[5] = system: NCI/ADR-RES ovarian
[6] = system: SK-OV-3 ovarian
[7] = system: K-562 leukemia
[8] = system: MDA-MB-231 breast
[9] = system: HCT-116 colon
[10] = system: SK-MEL-28 melanoma
[11] = system: SK-MEL-5 melanoma
[12] = system: M14 melanoma
[13] = system: LOX IMVI melanoma
[14] = system: HOP-62 NSCLC
[15] = system: OVCAR-3 ovarian
[16] = system: SNB-75 CNS
[17] = system: NCI-H23 lung
[18] = system: SNB-19 CNS
[19] = system: MCF7 breast
[20] = system: PC-3 prostate
[21] = system: NCI-H460 lung
[22] = system: IGROV1 ovarian
[23] = system: SF-295 CNS
[24] = system: RPMI-8226 leukemia
[25] = system: KM12 colon
[26] = system: UACC-257 melanoma
[27] = system: COLO 205 colon
[28] = system: A549 NSCLC
[29] = system: CCRF-CEM leukemia
[30] = system: NCI-H226 lung
[31] = system: CAKI-1 renal
[32] = system: MALME-3M melanoma
[33] = system: OVCAR-5 ovarian
[34] = system: DU-145 prostate
[35] = system: 786-0 renal
[36] = system: BT-549 breast
[37] = system: SF-539 CNS
[38] = system: HCT-15 colon
[39] = system: SN12C renal
[40] = system: MOLT-4 leukemia
[41] = system: UO-31 renal
[42] = system: OVCAR-4 ovarian
[43] = system: T-47D breast
[44] = system: UACC-62 melanoma
[45] = system: TK-10 renal
[46] = system: ACHN renal
[47] = system: A498 renal
[48] = system: RXF 393 renal
[49] = system: HCC-2998 colon
[50] = system: OVCAR-8 ovarian
[51] = system: HL-60(TB) leukemia
[52] = system: SK-MEL-2 melanoma
[53] = system: U251 CNS
[54] = system: SW-620 colon

In the case of `COc1ccc(-c2nnc(SCC(=O)Nc3ccc(C(=O)/C=C/c4cc(OC)c(OC)c(OC)c4)cc3)n2-c2ccccc2)cc1OC`, the GI50 [1] was 2070 nM, the TGI [1] was over 10 µM and the GI50 [2] was 1770 nM. The TGI [2] was 9.91 µM, the GI50 [3] was 3.46 µM and the TGI [3] was over 10 µM. The GI50 [4] was 666 nM, the TGI [4] was over 10 µM and the GI50 [5] was over 10 µM. It also gave a TGI [5] of over 10 µM, a GI50 [6] of 6.06 µM and a TGI [6] of over 10 µM. It also gave a GI50 [7] of 4.92 µM, a TGI [7] of over 10 µM and a GI50 [8] of 4.84 µM. It also gave a TGI [8] of over 10 µM, a GI50 [9] of 433 nM and a TGI [9] of over 10 µM. For the same molecule, the GI50 [10] was over 10 µM, the TGI [10] was over 10 µM and the GI50 [11] was 7.79 µM. The TGI [11] was over 10 µM, the GI50 [12] was 3.33 µM and the TGI [12] was over 10 µM. It also gave a GI50 [13] of 1740 nM, a TGI [13] of 4.87 µM and a GI50 [14] of 8.52 µM. The TGI [14] was over 10 µM, the GI50 [15] was 3.18 µM and the TGI [15] was over 10 µM. For the same molecule, the GI50 [16] was over 10 µM, the TGI [16] was over 10 µM and the GI50 [17] was 8.27 µM. For the same molecule, the TGI [17] was over 10 µM, the GI50 [18] was over 10 µM and the TGI [18] was over 10 µM. For the same molecule, the GI50 [19] was 382 nM, the TGI [19] was over 10 µM and the GI50 [20] was 6.89 µM. The TGI [20] was over 10 µM, the GI50 [21] was 8.54 µM and the TGI [21] was over 10 µM. For the same molecule, the GI50 [22] was 7.72 µM, the TGI [22] was over 10 µM and the GI50 [23] was over 10 µM. For the same molecule, the TGI [23] was over 10 µM, the GI50 [24] was 387 nM and the TGI [24] was 5.73 µM. The GI50 [25] was 2380 nM, the TGI [25] was over 10 µM and the GI50 [26] was over 10 µM. It also gave a TGI [26] of over 10 µM, a GI50 [27] of over 10 µM and a TGI [27] of over 10 µM. For the same molecule, the GI50 [28] was 4.33 µM, the TGI [28] was over 10 µM and the GI50 [29] was 2840 nM. For the same molecule, the TGI [29] was over 10 µM, the GI50 [30] was 2290 nM and the TGI [30] was 8.06 µM. The GI50 [31] was 8.57 µM, the TGI [31] was over 10 µM and the GI50 [32] was over 10 µM. It also gave a TGI [32] of over 10 µM, a GI50 [33] of over 10 µM and a TGI [33] of over 10 µM. The GI50 [34] was 3.86 µM, the TGI [34] was over 10 µM and the GI50 [35] was 3.53 µM. For the same molecule, the TGI [35] was over 10 µM, the GI50 [36] was 1980 nM and the TGI [36] was 7.99 µM. The GI50 [37] was 3.2 µM, the TGI [37] was over 10 µM and the GI50 [38] was 2010 nM. For the same molecule, the TGI [38] was over 10 µM, the GI50 [39] was over 10 µM and the TGI [39] was over 10 µM. The GI50 [40] was 9.46 µM, the TGI [40] was over 10 µM and the GI50 [41] was over 10 µM. The TGI [41] was over 10 µM, the GI50 [42] was over 10 µM and the TGI [42] was over 10 µM. It also gave a GI50 [43] of 4.74 µM, a TGI [43] of over 10 µM and a GI50 [44] of 6.4 µM. For the same molecule, the TGI [44] was over 10 µM, the GI50 [45] was over 10 µM and the TGI [45] was over 10 µM. It also gave a GI50 [46] of 5.69 µM, a TGI [46] of over 10 µM and a GI50 [47] of 5 µM. For the same molecule, the TGI [47] was over 10 µM, the GI50 [48] was 2130 nM and the TGI [48] was 6.85 µM. The GI50 [49] was 3.08 µM, the TGI [49] was over 10 µM and the GI50 [50] was 5.29 µM. The TGI [50] was over 10 µM, the GI50 [51] was 6.44 µM and the TGI [51] was over 10 µM. For the same molecule, the GI50 [52] was over 10 µM, the TGI [52] was over 10 µM and the GI50 [53] was 5.39 µM. It also gave a TGI [53] of over 10 µM, a GI50 [54] of 2450 nM and a TGI [54] of over 10 µM.
